Experimental data reported in patent US5681691A, “Photographic element containing an improved pyrazolotriazole coupler” (Eastman Kodak Company, priority 1996, dated 1997).

Columns and labels:
[1] = Activity of image coupler in single layer film (maximum slope relative to control coupler C-1); conditions: developer pH=10, ratio to maximum slope of C-1 control, higher ratio implies higher activity
Protocol: (§1) The emulsion was an undyed, but chemically sensitized, 0.7 micron polymorphic silver iodobromide emulsion containing 3.5% mole of iodide. The coating structure is shown below.
(§2) Monolayer coatings were panchromatically exposed and processed in developer solutions of different pH values. A stop bath was used to eliminate any complications due to the continuing coupling reaction. The processing procedure and solution formulations are listed below.
Further single layer film elements were prepared as above, given a stepped exposure and processed (developer pH=10). The activity of an image coupler was determined by determining the maximum slope between any two adjacent steps for the coupler and dividing by the maximum slope of a corresponding control sample containing coupler C-1 processed at the same time as the sample. A higher ratio implies higher activity. The logP of the R3 fragment (a quantity also referred to as π) was calculated as described in the Detailed Description of the invention.

[2] = pH sensitivity of gamma in single layer film, normalized to C-1; conditions: developer pH 9.75, 10, 10.37, normalized by division with pH sensitivity of C-1
Source text: To measure the pH sensitivity of a single layer film, the following was done. A stepped exposure was applied to three identical strips of the film. One strip was processed with the normal C-41 process at pH of about 10. A second strip was processed in the same developer in which the pH was decreased to 9.75, while the third strip was processed in the same developer in which the pH was increased to 10.37.
as §1, §2
The D-logE Status M gamma was measured for each film and the three gammas were used as input to a least-squares regression in which gamma was the response, and the factors were pH and pH-squared in a linear model with an intercept. Before regression, the three pH values were shifted (centered) to have a mean of zero (-0.31, 0, 0.31). The coefficient of the main effect, pH, in the regression is the pH sensitivity of gamma, which was normalized by division with the pH sensitivity of the comparison coupler C-1 (Table 2) that was processed at the same time as each test coupler.

[3] = Green pH sensitivity of gamma in multilayer film (format ML-A), normalized to C-1; conditions: for pH Sensitivity: multilayer film ML-A, developer pH 9.95 to 10.15, relative normalized pH sensitivity of green gamma vs C-1
Source text: The formulas for the multilayer organic components are provided following the examples. The multilayer format used was an ISO 200 speed format (designated ML-A).
Table 4 indicates the experiment number, whether it is a comparative or inventive example, the magenta coupler used in the designated green sensitive layers and the laydown in each of those layers.
To measure the green pH sensitivity of a multilayer film, the following was done. A neutral stepped exposure was applied to nine 35-mm strips of the film. One strip was processed with the normal C-41 process. The other eight strips were processed in a 2**3 factorial design in which the pH of the developer solution was varied from 9.95 to 10.15, the bromide was varied from 0.8 g/L to 1.8 g/L, and the concentration of the developer was varied from 3.5 g/L to 5.5 g/L. The green Status M photographic D-logE gammas were measured for each film at mid-exposure, and each gamma was normalized by dividing by the average gamma for all nine strips.
The nine normalized gammas that were obtained at the nine combinations of pH, Br, and developer concentration were used as input to a least-squares regression in which normalized gamma was the response, and the factors were pH, Br, and developer concentration in a linear model with an intercept. The coefficient of pH is the sensitivity of normalized gamma to pH, and this was further normalized (divided) by the sensitivity of the comparison coupler C-1 (Table 2) that was processed at the same time as each test coupler.

| Compound | Activity [1] | pH Sensitivity [2] | pH Sensitivity [3] | Activity ([1]; listed as SL-11) | magenta dye formed from coupler remaining in the film after processing ([3]; multilayer, solubility and washout of its magenta dye) |
| --- | --- | --- | --- | --- | --- |
| CCCCCCCCCCCCCCCc1cccc(OC(CCCC)C(=O)N(c2cccc(C(=O)O)c2)C(C)c2n[nH]c3c(Cl)c(C)nn23)c1 (centres unmarked) [Mag-7] | 1.22 | 0.83 | 0.59 |  |  |
| CCCCCCCCCCCCC(c1n[nH]c2c(Cl)c(C)nn12)N(CCCCCCCC)C(=O)CCC(=O)O (centres unmarked) [Mag C-1] | 1.00 | 1.00 | 1.00 |  |  |
| CCCCCCCCCCCCCCCC(=O)N(Cc1ccc(C(=O)O)cc1)C(C)c1n[nH]c2c(Cl)c(C)nn12 (centres unmarked) [Mag C-5] | 1.34 | 1.32 |  |  |  |
| CCCCCCCCCCCCCCCCCC(=O)N(c1cccc(C(=O)O)c1)C(C)c1n[nH]c2c(Cl)c(C)nn12 (centres unmarked) [Mag C-11] | 1.33 | 1.05 | 0.63 |  |  |
| CCCCCCCCCCCCCCCCCCCC(=O)N(CCCC(=O)O)C(c1ccccc1)c1n[nH]c2c(Cl)c(C)nn12 (centres unmarked) [Mag C-12] | 0.91 | 0.75 |  |  |  |
| CCCCCCCCCCCCCCCCCCCCCC(=O)N(c1cccc(C(=O)O)c1)C(CC)c1n[nH]c2c(Cl)c(C)nn12 (centres unmarked) [Mag-11] |  |  | 0.56 |  |  |
| CCCCCCCCCCCCCCCC(=O)N(c1cccc(CC(=O)O)c1)C(c1ccccc1)c1n[nH]c2c(Cl)c(C)nn12 (centres unmarked) [Mag C-8] | 1.26 | 1.43 |  |  |  |
| CCCCCCCCCCCCCCCC(=O)N(c1cccc(C(=O)O)c1)C(C)c1n[nH]c2c(Cl)c(C)nn12 (centres unmarked) [Mag C-10] | 1.52 | 0.51 | 0.66 |  |  |
| CCCCCCCCCCCCCCCCCC(=O)N(CCCCCC(=O)O)C(C)c1n[nH]c2c(Cl)c(C)nn12 (centres unmarked) [Mag C-7] | 1.04 | 1.32 |  |  |  |
| CCCCCCCCCCCCCCCCCCCCCC(=O)N(c1cccc(C(=O)O)c1)C(C)c1n[nH]c2c(Cl)c(C)nn12 (centres unmarked) [Mag-1] | 1.50 | 0.83 | 0.52 |  |  |
| CCCCCCCCCCCCCCCCCCCCCC(=O)N(c1cccc(C(=O)OC)c1)C(C)c1n[nH]c2c(Cl)c(C)nn12 (centres unmarked) [Mag C-14] | 0.43 |  |  | substantial loss of activity |  |
| CCCCCCCCCCCCCCCC(=O)N(c1ccc(CC(=O)O)cc1)C(c1ccccc1)c1n[nH]c2c(Cl)c(C)nn12 (centres unmarked) [Mag C-4] | 0.87 | 1.32 |  |  |  |
| CCCCCCCCCCCCC(Oc1ccc(C(C)(C)CC(C)(C)C)cc1)C(=O)N(c1cccc(C(=O)O)c1)C(C)c1n[nH]c2c(Cl)c(C)nn12 (centres unmarked) [Mag-6] | 1.15 | 0.75 |  |  |  |
| CCCCCC(=O)N(c1cccc(C(=O)O)c1)C(C)c1n[nH]c2c(Cl)c(C)nn12 (centres unmarked) [Mag C-15] |  |  | 0.41 |  | very little |
| CCCCCCCCCCC(Oc1ccc(S(=O)(=O)c2ccc(O)cc2)cc1)C(=O)Nc1ccc(CCCc2n[nH]c3c(Cl)c(C)nn23)cc1 (centres unmarked) [Mag C-2] | 0.51 | 1.39 |  |  |  |
| CCCCCCCCCCCCC(c1n[nH]c2c(Cl)c(C)nn12)N(C(=O)CCCCC)c1cccc(C(=O)O)c1 (centres unmarked) [Mag C-13] | 1.33 |  |  |  |  |
